Data as given in patent US20200085839A1, “COMBINATION OF IMMUNOTHERAPEUTICS AND BISFLUOROALKYL-1,4-BENZODIAZEPINONE COMPOUNDS FOR TREATING LYMPHOMAS” (Ayala Pharmaceuticals Inc., priority 2018, published 2020).
Entries after “also recorded” stand apart in the source; their conditions may differ.

What was measured:
[1] = system: SP49, Toledo, RC, SUDHL-4 and SUDHL-6 lymphoma cell lines; assay: Cell surface BCMA by FACS, five lymphoma cell lines; assay type: cell-based, human; details: SUDHL-4, SUDHL-6, 10 nM or more, 24 h
Description: (§1) Cells were seeded at 1×10^4 cells/well in a total volume of 250 μl into a 96-well plate. The cells were cultured in RPMI supplemented with 10% FCS.
(§2) The tested compounds (Compound 1 and Compound 22) were added to the cell cultures at concentrations of: 0, 10, 1, 0.5, 0.1, 0.01, 0.001 μM ([…], 10 nM, 100 nM, 500 nM, 1000 nM, and 10000 nM). Following 24 hours of incubation at 37° C., the cells were collected and stained with anti-BCMA antibody and immediately analyzed by FACS.
The effect of γ-secretase inhibitors on cell surface BCMA levels in lymphoma cell lines was observed using flow cytometry (FACS analysis) (FIG. 4). Cells from five different lymphoma cell lines were treated for 24 hours with different concentrations of Compound 1 (FIG. 4A) or Compound 22 (FIG. 4B). Lymphoma cell lines treated were: SP49 (MCL with Notch4 GOF); Toledo (DLBCL); RC (Double Hit DLBCL—MYC, BCL2); SUDHL-4 (DLBCL); and SUDHL-6 (DLBCL). GSI concentrations were 0, 1 nM, 10 nM, 100 nM, 500 nM, 1000 nM, and 10000 nM.

[2] = system: […] cell lines, comprising 9 subtypes of lymphomas; assay: Soluble BCMA by ELISA, lymphoma cell line panel; assay type: cell-based, human
Description: (§3) […] cell lines, comprising 9 subtypes of lymphomas (see Table 1), were seeded at 1×10^5 cells/well in a total volume of 250 μl into a 96-well plate. The cells were cultured in RPMI medium supplemented with 10% FCS. Compound (22) was added to the cell cultures at a concentration of 10 μM, 1 μM, 100 nM, 10 nM, 1 nM, 100 pM, 10 pM, 1 pM, and 100 fM, and cell lines (8 from Hadassah Medical Center, 31 from Eurofins) were incubated at 37° C. for 24 hours with Compound (22). Following incubation, the cells were collected and BCMA levels were evaluated on the cell surface for cell-bound BCMA. Cells were stained with an anti-BCMA antibody (PE anti-human 19F2 BCMA, Biolegend), and cell surface BCMA levels were determined by FACS analysis (Mean Fluorescence Intensity. Soluble BCMA levels were analyzed by ELISA (Human BCMA/TNFRSF17 DuoSet kit: R&D Systems).

[3] = system: U266 cells (MM cell line); assay: Cell-bound BCMA by flow cytometry; assay type: cell-based, human; details: 24 h; for cell-bound BCMA levels: FIG. 1; for effectiveness at increasing cell-bound BCMA compared with other GSIs: all doses above 0.3 nM
Description: FIG. 1. Levels of cell-bound BCMA en multiple myelma (MM) cells Incubated with γ-secretase inhibitors (GSIs). U266 cells (MM cell line) were incubated with 0.3 nM, 0.5 nM, 1 nM or 3 nM of GSI (Compound 1, Compound 22, LY3039478 or PF3084014) for 24 hours, and BCMA levels were measured by flow cytometry.
(§4) For detecting levels of soluble and cell-bound BCMA, U266 cells (MM cell line) were seeded at 1×10^5 cells/well in a total volume of 250 μl into a 96-well plate. The cells were cultured in RPMI medium supplemented with 10% FCS. GSIs (Compound 1, Compound 22, LY3039478 (Lilly), and PF3084014 (Pfizer)) were added to U266 cell cultures at a concentration of 0.3 nM, 0.5 nM, 1 nM and 3 nM for soluble BCMA and at a concentration of […]. Following 24 hours of incubation at 37° C., the cells were collected, and BCMA levels were evaluated in both the cells (cell-bound BCMA) and the cell media (soluble BCMA). Cells were stained with an anti-BCMA antibody (PE anti-human CD269 BCMA, Biolegend). Soluble BCMA levels were analyzed by ELISA (Human BCMA/TNFRSF17 DuoSet kit: R&D Systems).

018Z cells (B-ALL) = assay: Cell surface BCMA by FACS; assay type: cell-based, human
Description: as §1, §2, §3

RS411 cells (B-ALL) = assay: Cell surface BCMA by FACS; assay type: cell-based, human
Description: as §1, §2, §3

[4] = system: SUDHL-4 (Haddasah) cells (DLBCL); assay: Cell surface BCMA by FACS; assay type: cell-based, human
Description: as §1, §2, §3

SUDHL-6 cells (DLBCL) = assay: Cell surface BCMA by FACS; assay type: cell-based, human
Description: as §1, §2, §3

[5] = system: B-ALL cell lines RSV411, REH, 018Z; assay: Cell surface BCMA by FACS, B-ALL cell lines; assay type: cell-based, human; details: up to 10 μM, 24 h
Description: as §1, §2
The effect of γ-secretase inhibitors on cell surface BCMA levels in Acute B-Cell Lymphoblastic Leukemia (B-ALL) cell lines was also observed using flow cytometry (FIG. 5). Cells from three different B-ALL cell lines were treated for 24 hours with different concentrations (0-10 μM) of GSIs (Compound 1 and Compound 22).

[6] = system: U266 cells (MM cell line); assay: Soluble BCMA in cell media by ELISA; assay type: cell-based, human; details: for BCMA shedding: MM cells (U266), cell-bound and soluble BCMA
Description: FIG. 3. Levels of soluble BCMA In cell media after Incubation of multiple myeloma (MM) cells with γ-secretase inhibitors (GSIs). U266 cells (MM cell line) were incubated with 0.3 nM, 1 nM, 3 nM and 10 nM of GSI (Compound 1, Compound 22, LY3039478 or PF3084014) for 24 hours, and BCMA levels were measured by ELISA.
as §4

[7] = system: BCMA negative CD19 positive Raji Burkett lymphoma cell line; assay: Lysis of BCMA negative cells by BCMA-CAR-T cells and/or Compound (1); assay type: cell-based, human; details: combination with BCMA-CAR-T cells or each alone
[8] = system: U266 human myeloma cell line cells in NSG mice; assay: Anti-tumor activity of BCMA-targeted CAR-T cells and Compound (1) in vivo; details: combination with 1×10^6 BCMA targeted CAR-T cells IV on day 4; imaging day 11
Description: BCMA targeted CAR-T cells mediate an anti-myeloma immune response. 1×10^7 U266 human myeloma cell line cells are injected IV into NSG mice on day 0. On day 4, a) 1×10^6 BCMA targeted second generation CAR-T cells, Compound (1) or both are injected IV.

Cc1cccc2c1NC(=O)[C@@H](NC(=O)[C@H](CCC(F)(F)F)[C@H](CCC(F)(F)F)C(N)=O)N=C2c1cccc(F)c1 [Compound (22), (2R,3S)—N-((3S)-5-(3-fluorophenyl)-9-methyl-2-oxo-2,3-dihydro-1H-1,4-benzodiazepin-3-yl)-2,3-bis(3,3,3-trifluoropropyl)succinamide]
cell surface BCMA levels [1]: elevated BCMA levels
soluble BCMA ([2]; cell lines derived from Mantle Cell Lymphoma, DLBCL, Burkitt's Lymphoma, B-cell Lymphoma, 24 h): reduced soluble BCMA
shedding ([2]; certain lymphomas): abrogates shedding
BCMA shedding ([2]; lymphoma cells): decreases BCMA shedding from some lymphomas; also recorded: inhibits BCMA shedding
soluble BCMA ([2]; some Lymphoma/Leukemia cell lines): Compound (22) decreases soluble BCMA in some Lymphoma/Leukemia cell lines
cell-bound BCMA levels [3]: increased cell-bound BCMA levels
effectiveness at increasing cell-bound BCMA compared with other GSIs [3]: as effective as LY3039478 and more effective than PF3084014
mBCMA (MFI) Fold Increase (018Z cells (B-ALL)): 0.9 fold
BCMA (Mean Fluorescence Intensity) 1 nM Compound (22) (018Z cells (B-ALL); 1 nM, 24 h): 4121
BCMA (Mean Fluorescence Intensity) 100 nM Compound (22) (018Z cells (B-ALL); 100 nM, 24 h): 4500
mBCMA (MFI) Fold Increase (RS411 cells (B-ALL)): 0.9 fold
BCMA (Mean Fluorescence Intensity) 1 nM Compound (22) (RS411 cells (B-ALL); 1 nM, 24 h): 2273
BCMA (Mean Fluorescence Intensity) 100 nM Compound (22) (RS411 cells (B-ALL); 100 nM, 24 h): 2518
mBCMA (MFI) Fold Increase ([4]; SUDHL-4 (Haddasah)): 2.5 fold
BCMA (Mean Fluorescence Intensity) 1 nM Compound (22) ([4]; SUDHL-4, 1 nM, 24 h): 16100
BCMA (Mean Fluorescence Intensity) 100 nM Compound (22) ([4]; SUDHL-4, 100 nM, 24 h): 23438
mBCMA (MFI) Fold Increase (SUDHL-6 cells (DLBCL)): 2.6 fold
BCMA (Mean Fluorescence Intensity) 1 nM Compound (22) (SUDHL-6 cells (DLBCL); 1 nM, 24 h): 22915
BCMA (Mean Fluorescence Intensity) 100 nM Compound (22) (SUDHL-6 cells (DLBCL); 100 nM, 24 h): 24812
BCMA expression [5]: did not affect BCMA expression
BCMA shedding [6]: inhibit BCMA shedding
potency in reducing soluble BCMA in cell media compared with other GSIs ([6]; U266, 24 h): more potent than Compound 1; also recorded: as potent as LY3039478; also recorded: more potent than PF3084014

CN1C(=O)[C@@H](NC(=O)[C@H](CCC(F)(F)F)[C@H](CCC(F)(F)F)C(N)=O)N=C(c2ccccc2)c2ccccc21 [Compound 1, (2R,3S)—N-((3S)-1-methyl-2-oxo-5-phenyl-2,3-dihydro-1H-1,4-benzodiazepin-3-yl)-2,3-bis(3,3,3-trifluoropropyl)succinamide]
lysis of BCMA negative cells [7]: neither the BCMA-CAR-T cells and Compound (1) combination nor each alone lyses
anti-tumor response, imaging of tumors [8]: improved anti-tumor response compared to either BCMA targeted CAR-T or Compound (1) treatment alone
cell surface BCMA levels [1]: elevated BCMA levels
cell-bound BCMA levels [3]: increased cell-bound BCMA levels
effectiveness at increasing cell-bound BCMA compared with other GSIs [3]: as effective as LY3039478 and more effective than PF3084014
BCMA expression [5]: did not affect BCMA expression
BCMA shedding [6]: inhibit BCMA shedding
